Assay results as given in patent US20130023496A1, “Combination Therapy Comprising A CCR5 Antagonist, A HIV-1 Protease Inhibtior and a Pharmacokinetic Enhancer” (priority 2010, published 2013).

What was measured:
HIV-1 = settings: 48 weeks; atazanavir 300 mg/ritonavir 100 mg QD with Truvada versus lopinavir/r; cited from earlier work
CCR5-tropic HIV = assay: Randomized controlled study of atazanavir/ritonavir QD with maraviroc or Truvada in treatment-naïve patients, 24 weeks; format: in vivo, human; settings: with atazanavir 300 mg QD and ritonavir 100 mg QD
Description: To ascertain whether a once daily, nucleoside-sparing regimen using a CCR5 antagonist could be safely and efficaciously administered to HIV-positive patients infected with CCR5-tropic HIV, a randomized, controlled study is being conducted.

CCR5 tropic HIV-1 virus = settings: maraviroc 300 mg QD arm, preliminary results; cited from earlier work

Compound | non-inferiority primary endpoint of undetectable viral load (HIV-1 RNA less than 50 copies/mL) (HIV-1) | increase in CD4+ (CCR5-tropic HIV; after 24 weeks) [cells] | percentage of patients who achieved less than 50 copies/mL (CCR5-tropic HIV; week 24, HIV-1 RNA) [%] | percentage of patients who achieved less than 400 copies/mL (CCR5-tropic HIV; week 24, HIV-1 RNA) [%] | non-inferiority versus the efavirenz arm (CCR5 tropic HIV-1 virus)
COC(=O)N[C@H](C(=O)N[C@@H](Cc1ccccc1)[C@@H](O)CN(Cc1ccc(-c2ccccn2)cc1)NC(=O)[C@@H](NC(=O)OC)C(C)(C)C)C(C)(C)C [atazanavir] | met the non-inferiority primary endpoint | – | – | – | –
N-{(1S)-3-[3-(3-isopropyl-5-methyl-4H-1,2,4-triazol-4-yl)-exo-8-azabicyclo[3.2.1]oct-8-yl]-1-phenylpropyl}-4, 4-difluorocyclohexanecarboxamide [maraviroc] | – | 195 | 80 | 90 | did not meet the regulatory prespecified criteria for non-inferiority
